Reference: ChEMBL document CHEMBL3232788, “1-(2-Hydroxy-2-methyl-3-phenoxypropanoyl)indoline-4-carbonitrile derivatives as potent and tissue selective androgen receptor modulators” (J Med Chem, 2014)
Activity calls are given as the source filed them. The rule behind the calls is not given here.

Assays:
Androgen receptor [1] = target: T1, Androgen receptor (Homo sapiens, UniProt P10275); assay: Agonist activity at human AR expressed in CV1 cells after 17 hrs by luciferase reporter gene assay; assay type: cell-based, CV-1
T1 sequence (P10275 whole entry): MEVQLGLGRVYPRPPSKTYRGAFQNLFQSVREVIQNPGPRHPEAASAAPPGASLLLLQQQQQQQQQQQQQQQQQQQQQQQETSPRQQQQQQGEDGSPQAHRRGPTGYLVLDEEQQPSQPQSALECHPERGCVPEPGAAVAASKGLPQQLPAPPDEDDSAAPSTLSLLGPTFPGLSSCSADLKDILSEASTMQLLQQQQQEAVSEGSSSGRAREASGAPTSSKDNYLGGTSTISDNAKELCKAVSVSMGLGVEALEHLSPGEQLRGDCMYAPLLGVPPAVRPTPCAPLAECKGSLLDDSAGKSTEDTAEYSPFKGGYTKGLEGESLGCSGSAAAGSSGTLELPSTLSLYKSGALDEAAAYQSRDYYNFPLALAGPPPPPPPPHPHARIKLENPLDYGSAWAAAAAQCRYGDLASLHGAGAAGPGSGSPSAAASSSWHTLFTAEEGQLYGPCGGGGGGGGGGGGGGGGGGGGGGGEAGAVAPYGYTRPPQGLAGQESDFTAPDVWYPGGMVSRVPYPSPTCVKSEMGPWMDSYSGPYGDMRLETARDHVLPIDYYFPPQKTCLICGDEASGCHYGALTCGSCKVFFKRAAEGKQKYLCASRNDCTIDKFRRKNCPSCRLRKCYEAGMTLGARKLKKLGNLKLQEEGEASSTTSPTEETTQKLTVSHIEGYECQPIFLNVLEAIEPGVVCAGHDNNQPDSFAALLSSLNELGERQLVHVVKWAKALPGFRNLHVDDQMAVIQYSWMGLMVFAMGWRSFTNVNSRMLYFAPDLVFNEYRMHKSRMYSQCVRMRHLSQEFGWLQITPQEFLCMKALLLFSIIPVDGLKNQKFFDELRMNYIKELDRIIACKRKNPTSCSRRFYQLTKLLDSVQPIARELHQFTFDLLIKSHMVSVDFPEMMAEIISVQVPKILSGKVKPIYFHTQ

Androgen receptor [2] = target: T1, Androgen receptor; assay: Displacement of [3H]mibolerone from full length human AR expressed in COS cells after 3.5 hrs by liquid scintillation counting; assay type: cell-based
Androgen receptor [3] = target: T1, Androgen receptor; assay: Binding affinity to human AR NTD (1 to 561 aa) expressed in CV1 cells coexpressing human AR-LBD (644-919 aa) assessed as N/C-termini interaction by androgenic assay; assay type: cell-based, CV-1
Rattus norvegicus [4] = assay: Increase in prostate tissue weight in orchidectomized Sprague-Dawley rat at 1 mg/kg, sc qd for 4 days relative to vehicle-treated control; assay type: ADME, organism-based, Prostate gland; design: dose 1 mg/kg, route subcutaneous; conditions: in vivo, 96 h
Rattus norvegicus [5] = assay: Increase in seminal vesicle weight in orchidectomized Sprague-Dawley rat at 1 mg/kg, sc qd for 4 days relative to vehicle-treated control; assay type: ADME, organism-based; design: dose 1 mg/kg, route subcutaneous; conditions: in vivo, 96 h
Rattus norvegicus [6] = assay: Increase in levator ani muscle weight in orchidectomized Sprague-Dawley rat at 1 mg/kg, sc qd for 4 days relative to vehicle-treated control; assay type: functional, organism-based; design: dose 1 mg/kg

| SMILES | EC50 (Androgen receptor [1]) [nM] | IC50 (Androgen receptor [2]) [nM] | EC50 (Androgen receptor [3]) [nM] | Activity (Rattus norvegicus [4]) | Activity (Rattus norvegicus [5]) | Activity (Rattus norvegicus [6]) |
| --- | --- | --- | --- | --- | --- | --- |
| C[C@](O)(COc1ccccc1Cl)C(=O)N1CCc2c(C#N)cccc21 | 6.1 | 56.3 | 4820 |  |  |  |
| C[C@](O)(COc1cccc(F)c1)C(=O)N1CCc2c(C#N)cccc21 | 37.4 | 34.2 | 1530 |  |  |  |
| C[C@](O)(COc1ccc(C#N)cc1Br)C(=O)N1CCc2c(C#N)cccc21 | 0.06 | 4.8 | 0.41 |  |  |  |
| C[C@](O)(COc1ccc(Cl)cc1)C(=O)N1CCc2c(C#N)cccc21 | 3.4 | 36.5 | 172 |  |  |  |
| COc1ccc(OC[C@](C)(O)C(=O)N2CCc3c(C#N)cccc32)c(Cl)c1 | 0.61 | 3.5 | 54.1 |  |  |  |
| COc1cc(C#N)ccc1OC[C@](C)(O)C(=O)N1CCc2c(C#N)cccc21 | 7.6 | 16.1 | 2120 |  |  |  |
| COC(=O)c1ccc(OC[C@](C)(O)C(=O)N2CCc3c(C#N)cccc32)cc1 | 6.8 | 133 | > 10000 |  |  |  |
| C[C@](O)(COc1ccc(F)cc1C#N)C(=O)N1CCc2c(C#N)cccc21 | 0.074 | 9.1 | 0.74 |  |  |  |
| C[C@](O)(COc1ccccc1F)C(=O)N1CCc2c(C#N)cccc21 | 14.8 | 10.1 | > 10000 |  |  |  |
| COc1cc(Cl)ccc1OC[C@](C)(O)C(=O)N1CCc2c(C#N)cccc21 | 17.1 | 366 | > 10000 |  |  |  |
| C[C@](O)(COc1ccccc1C(F)(F)F)C(=O)N1CCc2c(C#N)cccc21 | 1.7 | 60.9 | 372 |  |  |  |
| C[C@](O)(COc1ccc(Br)cc1)C(=O)N1CCc2c(C#N)cccc21 | 0.34 | 2.4 | 7.6 |  |  |  |
| C[C@](O)(COc1ccc(Cl)cc1Cl)C(=O)N1CCc2c(C#N)cccc21 | 0.25 | 9.1 | 1.4 |  |  |  |
| Cc1cc(F)ccc1OC[C@](C)(O)C(=O)N1CCc2c(C#N)cccc21 | 1.1 | 10.7 | 72.2 |  |  |  |
| C[C@](O)(COc1ccc(C#N)cc1)C(=O)N1CCc2c(C#N)cccc21 | 1.8 | 16.4 | 71.8 |  |  |  |
| C[C@](O)(COc1ccc(Br)cc1F)C(=O)N1CCc2c(C#N)cccc21 | 0.11 | 36.8 | 0.93 |  |  |  |
| C[C@](O)(COc1ccc(Cl)cc1F)C(=O)N1CCc2c(C#N)cccc21 | 0.28 | 5 | 0.85 |  |  |  |
| C[C@](O)(COc1ccccc1)C(=O)N1CCc2c(C#N)cccc21 | 689 | 99.5 | > 10000 |  |  |  |
| COc1ccc(OC[C@](C)(O)C(=O)N2CCc3c(C#N)cccc32)c(F)c1 | 2.9 | 427 | > 10000 |  |  |  |
| C[C@](O)(COc1ccc(F)cc1Br)C(=O)N1CCc2c(C#N)cccc21 | 0.4 | 11.4 | 39.5 |  |  |  |
| C[C@](O)(COc1ccc(C#N)cc1F)C(=O)N1CCc2c(C#N)cccc21 | 0.039 | 3.2 | 0.14 |  |  |  |
| C[C@](O)(COc1ccccc1C#N)C(=O)N1CCc2c(C#N)cccc21 | 0.15 | 14.3 | 0.77 |  |  |  |
| C[C@](O)(COc1cccc(Cl)c1)C(=O)N1CCc2c(C#N)cccc21 | 275 | 107 | > 10000 |  |  |  |
| C[C@](O)(COc1ccc(C(F)(F)F)cc1)C(=O)N1CCc2c(C#N)cccc21 | 1.8 | 33.1 | > 10000 |  |  |  |
| C[C@](O)(COc1ccc(-c2cocn2)cc1)C(=O)N1CCc2c(C#N)cccc21 | 7.2 | 179 | > 10000 |  |  |  |
| CCC(=O)O[C@H]1CC[C@H]2[C@@H]3CCC4=CC(=O)CC[C@]4(C)[C@H]3CC[C@]12C [TESTOSTERONE PROPIONATE] |  |  |  | Toxic | Toxic | Active |
| COc1ccc(OC[C@](C)(O)C(=O)N2CCc3c(C#N)cccc32)cc1 | 8.6 | 146 | 624 |  |  |  |
